Measurements taken from patent US6491922B1, “Methods and compounds for treating autoimmune and vascular disease” (Cornell Research Foundation, Inc., priority 1996, dated 2002).
Entries after “also recorded” stand apart in the source; their conditions may differ.

What was measured:
GAPDH mRNA = test: GAPDH control transcript (Northern analysis, nuclear run-off); assay type: cell-based, human
VCAM-1 = test: Endotoxin-induced VCAM-1 expression on endothelial cells (FACS); assay type: cell-based, human
[1] = test system: murine nitric oxide synthase activity; test: Nitrite production (Griess assay) in RAW 264.7 cells; assay type: cell-based
Experimental: RAW 264.7 cells were treated with LPG 1 μM and simultaneously stimulated with endotoxin and mIFN-γ. Supernatants from each treatment condition were removed at 24, 48, and 72 hours, and nitrite production was measured by the Griess assay.
To determine whether LPG can alter NOS expression, a well characterized murine macrophage cell line, RAW 264.7 cells, were used to measure NOS activity. […] Because macrophages encounter LPG usually in the context of entry of the parasite, it was examined whether Leishmania promastigotes, upon entry into macrophages, transfer LPG onto the macrophage cell surfaces and inhibit nitrite production. L. donovani prosmastigotes (“Ld3”) within 15 minutes of attachment to human monocytes, THP-1 cells, or murine peritoneal macrcophages transferred LPG onto the surface of the macrophages, as determined by a monoclonal antibody against LPG and indirect fluorescent microscopy. Two hours after entering murine peritoneal macrophages, Ld3 promastigoes suppressed endotoxin- and IFN-γ induction of NOS activity; the inhibition was parasite dose dependent.

tissue factor = test: Tissue factor production by endothelial cells (one-stage clotting assay); assay type: cell-based, human
Experimental: Endothelial cell monolayers were pretreated with LPG for 1 hour and stimulated with endotoxin. Cultured endothelial cells, when stimulated by endotoxin, expressed high amounts of tissue factor. […] The production of tissue factor (in culture supernatant) is determined by a one-stage clotting assay. Helin et. al., “Allogeneic Induction of the Human T-cell-instructed Monocyte Procoagulant Response is Rapid and is Elicited by HLA-DR,” J. Exp. Med. 158: 962-75 (1983), which is hereby incorporated by reference.
To further examine if LPG can inhibit other endothelial cell functions, it was determined whether LPG inhibits thrombosis. Since thrombosis is mediated by the release of tissue factor (“TF”) by endothelial cells, the ability of LPG to inhibit TF production was evaluated. Cultured endothelial cells when stimulated by endotoxin express TF as determined by a one-stage clotting assay. Helin et. al., “Allogeneic Induction of the Human T-cell-instructed Monocyte Procoagulant Response is Rapid and is Elicited by HLA-DR,” J. Exp. Med. 158: 962-75 (1983), which is hereby incorporated by reference. […] To explore whether this effect was agonist specific, another agonist, TNF-α which is known to up-regulate TF generation, was used.

lipophosphoglycan [LPG]
effect on constitutive transcription of GAPDH mRNA (GAPDH mRNA; THP-1, Northern analysis): not affected; also recorded: no effect
effect on GAPDH transcription (GAPDH mRNA; nuclear run-on assay (Example 35)): no effect
effect on endotoxin-mediated expression of VCAM-1 (VCAM-1): strongly suppressed
effect on nitrite production ([1]; RAW 264.7, LPG 1 μM simultaneous with endotoxin and IFN-γ): inhibited the enhancement of nitrite production
reversal of the inhibition by higher amounts of agonists ([1]; higher amounts of endotoxin and IFN-γ): could not reverse
effect on TNF-α induction of endothelial cell production of TF (tissue factor): no effect
effect on endotoxin-induction of TF (tissue factor; LPG 2 μM): completely abrogated
effect on endotoxin induction of TF production (tissue factor; LPG pretreatment 1 hour): dose-dependent inhibition
